One may read the Kd as the equilibrium constant for the complex coming apart.

Nine compounds from ChEMBL document CHEMBL1144853, “Arginine binding motifs: design and synthesis of galactose-derived arginine tweezers as galectin-3 inhibitors” (J Med Chem, 2008) can be followed below.

The test deals with Galectin-3 (Homo sapiens, UniProt P17931). Put plainly: Binding affinity to human galectin 3 by Fluorescence polarization assay. On the technique in general: In fluorescence polarisation assays a small probe gives low polarisation when free and higher when bound to something large.
Sequence of Galectin-3 (P17931 whole entry): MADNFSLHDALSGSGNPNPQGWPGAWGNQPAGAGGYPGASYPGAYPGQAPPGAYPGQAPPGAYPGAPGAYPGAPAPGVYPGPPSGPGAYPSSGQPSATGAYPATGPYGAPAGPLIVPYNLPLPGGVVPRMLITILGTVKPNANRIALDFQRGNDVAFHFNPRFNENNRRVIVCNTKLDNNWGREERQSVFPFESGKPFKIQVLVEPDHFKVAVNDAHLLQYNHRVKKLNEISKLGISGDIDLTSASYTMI
For the compound `CS[C@@H]1O[C@H](CO)[C@H](O)[C@H](NC(=O)c2ccc(C)cc2)[C@H]1O[PH](=O)O`, the dissociation constant Kd came out at 150 µM.
For `CS[C@@H]1O[C@H](CO)[C@H](O)[C@H](NC(=O)c2ccc(C)cc2)[C@H]1O`, the Kd was determined as 220 µM.
As for `CS[C@@H]1O[C@H](CO)[C@H](O)[C@H](O)[C@H]1O`, the Kd was 5900 µM.
`CS[C@@H]1O[C@H](CO)[C@H](O)[C@H](NC(=O)c2ccc(C)cc2)[C@H]1OC(=O)c1ccccc1` came in with a Kd of 380 µM.
As for `CS[C@@H]1O[C@H](CO)[C@H](O)[C@H](NC(=O)c2ccc(C)cc2)[C@H]1OS(=O)(=O)O`, the dissociation constant Kd worked out at 87 µM.
Compound `CS[C@@H]1O[C@H](CO)[C@H](O)[C@H](NC(=O)c2ccc(C)cc2)[C@H]1OP(=O)(O)O` gave a Kd of 250 µM.
In turn, `CS[C@@H]1O[C@H](CO)[C@H](O)[C@H](NC(=O)c2ccc(C)cc2)[C@H]1OC(C)=O` displayed a Kd of 240 µM.
The compound `CS[C@@H]1O[C@H](CO)[C@H](O)[C@H](O)[C@H]1OS(=O)(=O)O` displayed a Kd of 2800 µM.
As to `CS[C@@H]1O[C@H](CO)[C@H](O)[C@H](NC(=O)c2ccc(C)cc2)[C@H]1OP(=O)(O)OCc1ccccc1`, the Kd was 120 µM.
